From ChEMBL document CHEMBL1139402, “Design and SAR of new substituted purines bearing aryl groups at N9 position as HIV-1 Tat-TAR interaction inhibitors” (Bioorg Med Chem, 2008) come the findings set out here.

Series [1] is described as follows: Selectivity index, ratio of TC50 for human CEM cells to EC50 for SIV-induced syncytium. More on the design: species or system CCRF-CEM.
Series [2] relates to Simian immunodeficiency virus. The series can be described thus: Antiviral activity against SIV-induced syncytium in human CEM cells assessed as inhibition of virus-induced cytopathogenicity after 5 days. Type of series: functional, organism-based. Particulars: CCRF-CEM, 120 h. (In general: Protection from cytopathic effect is a common read-out in antiviral testing.)
A short description of series [3]: Cytotoxicity against human CEM cells assessed as inhibition of uninfected cells proliferation. Type of series: cell-based. Particulars: CEM (CCRF-CEM) cells, read-out: TC50 (the source's name).
The subject of series [4] is Human immunodeficiency virus 1. Put plainly: Inhibition of HIV1 Tat-TAR interaction-mediated transactivation in human 293T cells assessed as CAT gene expression at 30 uM after 24 hrs by ELISA. Type of series: functional. Particulars: Human immunodeficiency virus 1, HEK-293T.

As usually defined, the EC50 is the concentration giving half of the maximal effect. One may read the inhibition as the percentage by which the read-out fell short of the control.

Turning to `CCN(CC)c1nc(C)c2nc(SCC(=O)NCCNC(=N)N)n(CCn3cncn3)c2n1`, in series [1], the Ratio was greater than 8.1. In addition, the concentration giving a half-maximal response (EC50) in series [2] came out at 12.4 µM. For the same compound, the CC50 in series [3] is greater than 100 µM.
For the compound `CCN(CC)c1nc(C)c2nc(SCC(=O)NCCNC(=N)N)n(CCCn3cncn3)c2n1`, the Ratio in series [1] is greater than 18.5. The EC50 in series [2] came out at 5.4 µM. Besides, the CC50 in series [3] is greater than 100 µM. Also, the inhibition at 30 µM in series [4] came to 48.2%.
Regarding `CCN(CC)c1nc(C)c2nc(SCC(=O)NCCCNC(=N)N)n(CCCn3cncn3)c2n1`, the Ratio in series [1] is listed as greater than 17.2. In addition, the half-maximal effective concentration (EC50) in series [2] worked out at 5.8 µM. Also, the CC50 in series [3] was greater than 100 µM.
As for `CCN(CC)c1nc(C)c2nc(SCC(=O)NCCCNC(=N)N)n(CCn3cncn3)c2n1`, the Ratio in series [1] was greater than 14.1. The EC50 in series [2] amounted to 7.1 µM. In addition, the CC50 in series [3] was greater than 100 µM.
As to `CCN(CC)c1nc(C)c2nc(SCC(=O)NCCCNC(=N)N)n(CCNc3ncnc4[nH]cnc34)c2n1`, the Ratio in series [1] is listed as greater than 7.7. The concentration giving a half-maximal response (EC50) in series [2] was found to be 13 µM. Moreover, the CC50 in series [3] is greater than 100 µM. The inhibition at 30 µM in series [4] turned out to be 58.6%.
On to `CCN(CC)c1nc(C)c2nc(SCC(=O)NCCNC(=N)N)n(CCNc3nc(N)nc4[nH]cnc34)c2n1`, for which the Ratio in series [1] is greater than 16.4. The concentration giving a half-maximal response (EC50) in series [2] was determined as 6.1 µM. Further, the CC50 in series [3] is greater than 100 µM.
In the case of `CCN(CC)c1nc(C)c2nc(SCC(=O)NCCCNC(=N)N)n(CCc3c[nH]c4ccccc34)c2n1`, in series [1], the Ratio was determined as 5.2. The 50% effective concentration (EC50) in series [2] came out at 5.6 µM. Besides, the CC50 in series [3] turned out to be 29.1 µM.
Consider `CCN(CC)c1nc(C)c2nc(SCC(=O)NCCNC(=N)N)n(CCCN3CCOCC3)c2n1`, for which, in series [1], the Ratio is listed as greater than 5.3. In addition, the EC50 in series [2] stood at 18.9 µM. Also, the CC50 in series [3] is greater than 100 µM. Further, the inhibition at 30 µM in series [4] came out at 81.8%.
For the compound `CCN(CC)c1nc(C)c2nc(SCC(=O)NCCCNC(=N)N)n(CCCN3CCOCC3)c2n1`, the Ratio in series [1] was greater than 8.9. In addition, the EC50 in series [2] worked out at 11.2 µM. Further, in series [3], the CC50 is greater than 100 µM. The inhibition at 30 µM in series [4] was found to be 48.2%.
As for `CCN(CC)c1nc(C)c2nc(SCC(=O)NCCN)n(CCc3c[nH]c4ccccc34)c2n1`, the Ratio in series [1] was 4.1. Moreover, the EC50 in series [2] is 1.6 µM. The CC50 in series [3] was 6.5 µM.
As for `CCN(CC)c1nc(C)c2nc(SCC(=O)NCCCN)n(CCc3c[nH]c4ccccc34)c2n1`, the Ratio in series [1] worked out at 2.4. In addition, the 50% effective concentration (EC50) in series [2] was 4.2 µM. In addition, the CC50 in series [3] came to 10.2 µM.
Turning to `CCN(CC)c1nc(C)c2nc(SCC(=O)NCCNC(=N)N)n(CCc3c[nH]c4ccccc34)c2n1`, the Ratio in series [1] worked out at 3.7. Also, the EC50 in series [2] was 7.9 µM. Moreover, in series [3], the CC50 was found to be 29.5 µM.
For the compound `CCN(CC)c1nc(C)c2nc(SCC(=O)NCCCN)n(CCNc3ncnc4[nH]cnc34)c2n1`, the Ratio in series [1] is greater than 18.2. The 50% effective concentration (EC50) in series [2] was found to be 5.5 µM. For the same compound, the CC50 in series [3] is greater than 100 µM. Also, the inhibition at 30 µM in series [4] stood at 52.3%.
In the case of `CCN(CC)c1nc(C)c2nc(SCC(=O)NCCN)n(CCNc3nc(N)nc4[nH]cnc34)c2n1`, the Ratio in series [1] is on record as greater than 5. The concentration giving a half-maximal response (EC50) in series [2] was found to be 20 µM. Moreover, in series [3], the CC50 is greater than 100 µM.
As for `CCN(CC)c1nc(C)c2nc(SCC(=O)NCCCN)n(CCNc3nc(N)nc4[nH]cnc34)c2n1`, the Ratio in series [1] was greater than 15.4. For the same compound, the half-maximal effective concentration (EC50) in series [2] worked out at 6.5 µM. Further, the CC50 in series [3] was greater than 100 µM.
As for `CCN(CC)c1nc(C)c2nc(SCC(=O)NCCNC(=N)N)n(CCNc3ncnc4[nH]cnc34)c2n1`, in series [1], the Ratio was determined as 11.9. In addition, the 50% effective concentration (EC50) in series [2] is 7.8 µM. For the same compound, the CC50 in series [3] is 92.7 µM. For the same compound, the inhibition at 30 µM in series [4] came to 48.2%.
On to `CCN(CC)c1nc(C)c2nc(SCC(=O)NCCCNC(=N)N)n(CCNc3nc(N)nc4[nH]cnc34)c2n1`, for which the Ratio in series [1] is recorded as greater than 12. In addition, the concentration giving a half-maximal response (EC50) in series [2] was determined as 8.3 µM. Besides, the CC50 in series [3] was greater than 100 µM.
With `CCN(CC)c1nc(C)c2nc(SCC(=O)NCCN)n(CCn3cncn3)c2n1`, in series [1], the Ratio was greater than 7.2. Further, the EC50 in series [2] is 13.8 µM. The CC50 in series [3] was greater than 100 µM.
On the same counts, the results for `CCN(CC)c1nc(C)c2nc(SCC(=O)NCCCN)n(CCn3cncn3)c2n1` are greater than 8.7, 11.5 µM and greater than 100 µM.
In the case of `CCN(CC)c1nc(C)c2nc(SCC(=O)NCCN)n(CCCn3cncn3)c2n1`, in series [1], the Ratio is greater than 14.5. Further, the half-maximal effective concentration (EC50) in series [2] was found to be 6.9 µM. The CC50 in series [3] was greater than 100 µM. Further, the inhibition at 30 µM in series [4] turned out to be 48.2%.
On the same counts, the results for `CCN(CC)c1nc(C)c2nc(SCC(=O)NCCN)n(CCCN3CCOCC3)c2n1` are 5.2, 12.4 µM, 64.8 µM and 80.4%.
With `CCN(CC)c1nc(C)c2nc(SCC(=O)NCCCN)n(CCCn3cncn3)c2n1`, the Ratio in series [1] was found to be 3.6. Besides, the EC50 in series [2] worked out at 8.9 µM. Moreover, in series [3], the CC50 was 31.7 µM.
Turning to `CCN(CC)c1nc(C)c2nc(SCC(=O)NCCN)n(CCNc3ncnc4[nH]cnc34)c2n1`, in series [1], the Ratio is greater than 40. Besides, in series [2], the concentration giving a half-maximal response (EC50) stood at 2.5 µM. For the same compound, in series [3], the CC50 was greater than 100 µM. For the same compound, in series [4], the inhibition at 30 µM is 48.2%.
Take `CCN(CC)c1nc(C)c2nc(SCC(=O)NCCCN)n(CCCN3CCOCC3)c2n1`: the Ratio in series [1] is 7.4. In addition, the concentration for a half-maximal effect (EC50) in series [2] came to 11.8 µM. In addition, the CC50 in series [3] turned out to be 87.5 µM. Also, the inhibition at 30 µM in series [4] is 83%.
